Data taken from US20260207535A1, “CRIBLAGE INHIBITEURS USP8” (COMMISSARIAT A L'ENERGIE ATOMIQUE ET AUX ENERGIES …, priority 2022, published 2026).

Experiments:
AtT-20 pituitary cells = assay: Inhibition of ACTH secretion in pituitary cells (ACTH EIA on supernatant); format: cell-based, mouse
Method: ACTH release (percent comparison to DMSO control). Briefly, 12,500 AtT-20 cells per well were seeded in a 96-well plate. After 24 hours exposure, cells were treated with each compound at the indicated final concentration, or with DMSO alone (control condition compound solvent) or with corticotropin releasing factor (indicated CRF) at 100 nM. After a 24-hour treatment, cell supernatants were collected and stored at −80° C., prior to quantification of ACTH concentration using ACTH chemiluminescent EIA kit (Phoenix Pharmaceuticals, Inc.). Determination of ACTH concentrations was based on the best-fitting ACTH standard curve and P values were calculated using one-way ANOVA, using Prism 9 software (GraphPad Software, Inc.) ns (P=0.12). **P<0.002. ***P<0.001. All compounds were tested in technical triplicates. One representative experiment out of three is presented.
FIG. 4: illustrates a decrease of ACTH secretion by AtT-20 cells after 24-hour treatment of halogenated salicylanilides. 12,500 AtT-20 cells per well were seeded in a 96-well plate. […] After a 24-hour treatment, cell supernatants were collected and stored at −80° C., prior to quantification of ACTH concentration using ACTH chemiluminescent EIA kit (Phoenix Pharmaceuticals, Inc.). Determination of ACTH concentrations was based on the best-fitting ACTH standard curve and P values were calculated by ordinary one-way ANOVA using Prism 6 software (GraphPad Software, Inc), ns (not significant), **** P<0.0001. Compounds were tested in technical triplicates.
12,500 AtT-20 cells per well were seeded in a 96-well plate. After 24 hours, cells were treated with compounds (corresponding chemical formula are indicated in Table 1) at 25 μM final concentration, or with DMSO alone (compound solvent). After a 24-hour treatment, cell supernatants were collected and stored at −80° C., prior to quantification of ACTH concentration using ACTH chemiluminescent EIA kit (Phoenix Pharmaceuticals, Inc.). Determination of ACTH concentrations was based on the best-fitting ACTH standard curve and P values were calculated by ordinary one-way ANOVA using Prism 6 software (GraphPad Software, Inc), ns (not significant), *P<0.05, ***P<0,0001. Compounds were tested in technical triplicates.
Mouse AtT-20 pituitary cell line were used as a powerful and well-characterized model to monitor ACTH secretion using an enzyme immunoassay (EIA) kit.
Mouse AtT-20 cells were obtained from the American Type Culture Collection and maintained on DMEM containing 10% fetal bovine serum, 100 μg/mL streptomycin and 100 U/mL penicillin at 37° C. with 5% CO2 after recovery from long-term storage on liquid nitrogen-vapor phase.
The ACTH secretion levels of AtT-20 cell culture was monitored on the supernatant of AtT-20 cells treated or not by increasing doses of compounds belonging to the family of halogenated salicylanilides chemicals.
1.25×10^4 AtT20 cells were seeded on polylysine-coated 96-well culture vessels on 150 μL of complete medium. After 24 hours, cells were treated with stock compounds to a final DMSO concentration of 0.5%. After 24 hours of treatment, cell culture supernatant was collected, cleared for 10 min at 1000×g at 4° C., diluted or not in assay buffer (Phoenix Peptide ACTH EIA EK-001-21) and frozen at −80° C. for subsequent processing according to the instructions of the kit's manufacturer.

POMC gene = assay: POMC encoding gene expression (quantitative RT-PCR, normalized to HPRT); format: cell-based, mouse; conditions: 10, 20, 30 and 36 μM, 24 hours, vs DMSO
Method: Each dot represents the amount of POMC encoding transcripts normalized to the amount of transcripts encoding the housekeeping gene HPRT and then compared to the DMSO control condition. Mean of technical triplicates with errors bars.
ACTH production depends on the activation of the proopiomelanocortin (POMC) gene encoding the ACTH precursor.
3.75×10^5 AtT20 cells were seeded on polylysine-coated 6-well culture microplates on 2.4 mL complete medium. After 24 hours, cells were treated with stock compounds to a final DMSO concentration of 0.5%. After 24 hours of treatment, cells were briefly rinsed with 37° C. DPBS (no calcium, no magnesium modification), lysed with the LBP reagent from the NucleoSpin® RNA Plus kit (Macherey-Nagel 740984.50) and then frozen at −70° C. before continuing with the RNA extraction protocol as per manufacturer's instructions. 1 μg RNA was used to synthesize cDNA using the AffinityScript QPCR cDNA Synthesis Kit (Agilent #600559). qPCR reaction was performed using the primers against the mouse POMC gene (5′-CCTCCTGCTTCAGACCTCCATAGAT-3′ and 5′-GTCTCCAGAGAGGTCGAGTTT). […] Detection was done using the Brilliant II SYBR® Green QPCR Master Mix (Agilent #600828), and readings were done using a Stratagene Mx3005P equipment.

Structure (SMILES): Cc1cc(C(C#N)c2ccc(Cl)cc2)c(Cl)cc1NC(=O)c1cc(I)cc(I)c1O (stereo not drawn) [Closantel, reference compound]
- reduction in ACTH release (AtT-20 pituitary cells; 5.62 μM, compared to control): 20%
- inhibition of ACTH at 25 μM, in words (FIG. 4, FIG. 5) (AtT-20 pituitary cells; 25 μM, 24-hour treatment): significant inhibition
- ACTH secretion reduction (AtT-20 pituitary cells; 30 μM, compared to control conditions): 60%
- activity at 25 µM (AtT-20 pituitary cells; Mus musculus, AtT20, 25 μM, 24-hour treatment, AtT-20 supernatant, read-out: ACTH secretion % of control (DMSO) at 25 μM): 65%
- dose-dependent inhibition of ACTH (FIG. 3) (AtT-20 pituitary cells; increasing concentrations, 24-hour treatment): significant dose-dependent inhibition
- POMC mRNA species (FIG. 8) (POMC gene): strong decrease
